US4551455A, “Method of treating high blood pressure using 6-[4-(1-imidazolyl)-phenyl]-5-methyl-3-oxo-tetrahydropyridazines” (A. Nattermann & Cie GmbH, priority 1982, dated 1985)
pIC50: −log10 of the molar value. Where two headings read alike, the source gives them in different places.

Assays:
[1] = tested on: thrombin formation; test: reduction of thrombin formation in narcotized rats; assay type: in vivo, rat
Protocol: (§1) For investigation of the pharmacodynamic properties, the following methods (1) through (4) were employed.
(4) The reduction of thrombin formation in narcotized rats was evaluated. The test of the reduction of thrombin formation by the substances of the present invention 6-[4-(1-imidazolyl)phenyl]-5-methyl-3-oxo-2,3,4,5-tetrahydropyridazine (A) and 6-[4-(2-methyl-1-imidazolyl)-phenyl]-5-methyl-3-oxo-2,3,4,5-[…] (B) in parallel with the reference substance acetylsalicylic acid (D) was carried out by oral administration to narcotized rats.

[2] = tested on: anaesthetized dogs; test: blood pressure-lowering effect on anaesthetized dogs; assay type: in vivo, dog; details: for influence on blood pressure (in words): Table 2, anaesthetized dogs; for Pressure, Δ mmHg, diastolic / Pressure, Δ mmHg, systolic: anaesthetized dogs, 0.316 mg/kg intraduodenally, change in pressure
Protocol: as §1
(2) The blood pressure-lowering effect on anaesthetized dogs was evaluated. The influence on the systolic and diastolic blood preessure of the subject compounds 6-[4-(1-imidazolyl)phenyl]-5-methyl-3-oxo-2,3,4,5-tetrahydropyridazine (A) and 6-[4-(2-methyl-1-imidazolyl)-phenyl]-5-methyl-3-oxo-2,3,4,5-tetrahydropyridazine (B) were studied on the anaesthetized dogs by intraduodenal administration.

[3] = tested on: collagen-induced thrombocyte aggregation; test: inhibition of collagen-induced thrombocyte aggregation in vitro (method of Born, modified); assay type: cell-based, human; details: read-out: IC50 (concentration that caused a 50% reduction of the aggregation)
Protocol: as §1
(3) The inhibition of collagen-induced thrombocyte aggregation in vitro was evaluated. The suppression of collagen-induced thrombocyte aggregation in vitro was carried out on thrombocyte-rich human plasma with the inventive substance 6-[4-(1-imidazolyl)-phenyl]-5-methyl-3-oxo-2,3,4,5-tetrahydropyridazine (A) in parallel with the reference substance acetylsalicyclic acid (D) according to the method of Born (Nature, 194, 927-929 (1962)) in modified form (simultaneous application). The concentration that caused a 50% reduction of the aggregation was defined as IC50 in Table 3 set forth below.

[4] = tested on: normotensive Wistar rats; test: blood pressure-lowering effect on narcotized rats; assay type: in vivo, rat (male adult normotensive Wistar); details: for Average arterial pressure / Heart frequency: rats, 3.16 mg/kg orally, n = 5, narcotized 90 min after application; for Average arterial pressure: control 112.8 ± 4.8; for Heart frequency: control 307 ± 11
Protocol: as §1
(1) The blood pressure-lowering effect on narcotized rats was evaluated. For testing of the blood pressure-lowering effect, the invention substance 6-[4-(imidazolyl)phenyl]-5-methyl-3-oxo-2,3,4,5-tetrahydropyridazine (A) was administered in parallel with the reference substance 1-hydrazinophthalazine (hydralazine) (C) orally to groups of 5 male adult normotensive Wistar rats. Ninety minutes after application, the animal was narcotized with 75 mg/kg of intraperitoneal phenobarbital, and the trachea and the carotid artery were cannulated.

pIC50 ([3]; thrombocyte-rich human plasma, collagen-induced, simultaneous application) | SMILES | Reduction in % (thrombin formation) ([1]; 10 mg/kg orally) [%] | influence on blood pressure (in words) [2] | Pressure, Δ mmHg, diastolic [2] [mmHg] | Pressure, Δ mmHg, systolic [2] [mmHg] | blood pressure-lowering effect on the rats (in words) ([4]; Table 1, in comparison with hydralazine C) | Average arterial pressure [4] [mmHg] | Heart frequency [4] [beats/min.] | Reduction in % (thrombin formation) ([1]; 100 mg/kg orally) [%] | pIC50 ([3]; Homo sapiens)
5.62 | CC1CC(=O)NN=C1c1ccc(-n2ccnc2)cc1 (stereo not shown) [Substance A, 6-[4-(1-imidazolyl)phenyl]-5-methyl-3-oxo-2,3,4,5-tetrahydropyridazine] | -52 | strong influence on blood pressure | -51.42 | -51.77 | powerful blood pressure-lowering effect | 54.8 ± 8.9 | 415 ± 17 | – | –
– | Cc1nccn1-c1ccc(C2=NNC(=O)CC2C)cc1 (stereo not shown) [Substance B, 6-[4-(2-methyl-1-imidazolyl)-phenyl]-5-methyl-3-oxo-2,3,4,5-tetrahydropyridazine] | -48 | strong influence on blood pressure | -43.80 | -48.18 | – | – | – | – | –
– | NNc1nncc2ccccc12 [Substance C, 1-hydrazinophthalazine, reference compound] | – | – | – | – | – | 82.0 ± 6 | 356 ± 8 | – | –
– | CC(=O)Oc1ccccc1C(=O)O [Substance D, acetylsalicylic acid, reference compound] | – | – | – | – | – | – | – | -45 | < 3.52
